This note sets out measurements from patent US20260085073A1, “PYRAZOLYLCARBOXAMIDE COMPOUNDS AND THEIR USE IN THERAPY” (Hotspot Therapeutics, Inc., priority 2022, published 2026).

Each structure is given as a SMILES string. Where only a bound is given, the exact number is not on record here.

This assay deals with T1, MALT1 (Homo sapiens, UniProt Q9UDY8).
T1 construct: Avi-tagged FL MALT-1 (Pharmaron, stored at −70° C.); Avi-tag
T1 sequence (Q9UDY8 1-824): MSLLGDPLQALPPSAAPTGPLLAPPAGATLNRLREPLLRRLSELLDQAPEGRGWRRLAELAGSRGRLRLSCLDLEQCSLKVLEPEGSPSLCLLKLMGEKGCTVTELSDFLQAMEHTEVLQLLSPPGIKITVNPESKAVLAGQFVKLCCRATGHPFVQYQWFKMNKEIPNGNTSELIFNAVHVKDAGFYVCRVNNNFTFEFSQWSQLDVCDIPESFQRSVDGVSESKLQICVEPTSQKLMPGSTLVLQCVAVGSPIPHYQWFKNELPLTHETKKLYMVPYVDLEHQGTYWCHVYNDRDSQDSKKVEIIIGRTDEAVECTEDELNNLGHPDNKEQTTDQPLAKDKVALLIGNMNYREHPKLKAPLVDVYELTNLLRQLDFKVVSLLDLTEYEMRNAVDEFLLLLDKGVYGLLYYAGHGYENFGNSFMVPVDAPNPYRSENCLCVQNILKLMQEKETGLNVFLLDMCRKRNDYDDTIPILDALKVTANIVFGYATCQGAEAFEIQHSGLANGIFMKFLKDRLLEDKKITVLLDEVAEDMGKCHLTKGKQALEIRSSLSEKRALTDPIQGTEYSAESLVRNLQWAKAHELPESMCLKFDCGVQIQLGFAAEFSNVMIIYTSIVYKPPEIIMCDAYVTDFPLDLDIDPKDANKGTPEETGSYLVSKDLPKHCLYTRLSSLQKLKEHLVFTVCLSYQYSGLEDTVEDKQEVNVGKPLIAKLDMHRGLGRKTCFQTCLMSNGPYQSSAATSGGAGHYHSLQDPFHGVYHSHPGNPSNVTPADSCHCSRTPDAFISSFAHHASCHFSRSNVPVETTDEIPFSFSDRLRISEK
Briefly: MALT1 inhibition assay (MALT-1 Fluorogenic Peptide Cleavage Assay, Ac-LRSR-AMC substrate). The class given is biochemical. As to conditions: Avi-tagged FL MALT-1, 30 min pre-incubation, 90 min reaction at room temperature, fluorescence intensity. The gist of the method: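 Full-length Avi-tagged MALT1 pre-incubated 30 min at room temperature with compounds (2% DMSO final) in HEPES pH 6.89, sodium citrate, TCEP, EDTA, CHAPS buffer. Ac-LRSR-AMC added from 50 µM (Km) or […] working stocks; 90 min at room temperature, AMC fluorescence (ex 342/em 441 nm); IC50 from % inhibition curves.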
`CCn1nc(-c2ccccc2)c(C(F)(F)F)c1C(=O)Nc1cnc(-n2nccn2)c(Cl)c1` [Compound I-170]: the IC50 (commonly the midpoint of a concentration-inhibition curve) is below 500 nM.

The compound `Cc1csc2c(-c3nn(C)c(C(=O)Nc4ccnc(C(F)(F)F)c4)c3C(F)(F)F)cccc12` [Compound I-101] gave an IC50 of 500 to 2500 nM.

`Cc1cc(NC(=O)c2c(C(F)(F)F)c(-c3ccccc3)nn2C)cnc1-n1nccn1` [Compound I-135] gave a half-inhibitory concentration (IC50) of 500 to 2500 nM.

Turning to `COc1cccc(-c2nn(C)c(C(=O)Nc3ccnc(C(F)(F)F)c3)c2C(F)(F)F)c1Cl` [Compound I-68], the IC50 was in the range of 500 to 2500 nM.

In the case of `Cn1nc(-c2cccc3oncc23)c(C(F)(F)F)c1C(=O)Nc1ccnc(C(F)(F)F)c1` [Compound I-246], the half-maximal inhibitory concentration (IC50) lay within 2500 to 10000 nM.

On to `Cn1nc(-c2cncc(C#N)c2)c(C(F)(F)F)c1C(=O)Nc1ccnc(C(F)(F)F)c1` [Compound I-70], for which the IC50 is above 10000 nM.

`Cn1nc(-c2csc3ccccc23)c(C(F)(F)F)c1C(=O)Nc1ccnc(C(F)(F)F)c1` [Compound I-92]: the IC50 is below 500 nM.

As for `Cn1nc(-c2c(F)ccc3nccn23)c(C(F)(F)F)c1C(=O)Nc1ccnc(C(F)(F)F)c1` [Compound I-296], the IC50 was in the range of 500 to 2500 nM.

Regarding `Cn1nc(Nc2ccccc2)c(C(F)(F)F)c1C(=O)Nc1cnc(-n2nccn2)c(Cl)c1` [Compound I-86], the IC50 is below 500 nM.

The compound `Cn1nc(-c2cn(C)c3c(=O)[nH]ccc23)c(C(F)(F)F)c1C(=O)Nc1ccnc(C(F)(F)F)c1` [Compound I-112] returned an IC50 of 2500 to 10000 nM.

Compound `Cn1nc(-c2ccc(C#N)cc2Cl)c(C(F)(F)F)c1C(=O)Nc1ccnc(C(F)(F)F)c1` [Compound I-41] returned an IC50 below 500 nM.

As to `Cn1nc(-c2cccc3cncn23)c(C(F)(F)F)c1C(=O)Nc1ccnc(C(F)(F)F)c1` [Compound I-224], the half-inhibitory concentration (IC50) was in the range of 500 to 2500 nM.

With `Cn1nc(-c2cccc3cnccc23)c(C(F)(F)F)c1C(=O)Nc1cnc(-n2nccn2)c(C#N)c1` [Compound I-31], the IC50 was below 500 nM.

In the case of `O=C(Nc1cnc(-n2nccn2)c(Cl)c1)c1nn(C(F)F)c(-c2ccccc2)c1C(F)(F)F` [Compound I-180], the IC50 was below 500 nM.

On to `COc1ncc(NC(=O)c2c(C(F)(F)F)c(-c3cccc4ccoc34)nn2C)cc1C#N` [Compound I-156], for which the IC50 is below 500 nM.

`Cn1cc2cccc(-c3nn(C)c(C(=O)Nc4ccnc(C(F)(F)F)c4)c3C(F)(F)F)c2n1` [Compound I-5] yielded an IC50 of 2500 to 10000 nM.

As to `Cn1nc(-c2cccc3occc23)c(C(F)(F)F)c1C(=O)Nc1ccnc(C(F)(F)F)c1` [Compound I-47], the IC50 was below 500 nM.

Regarding `Cn1nc(-c2cccc3ncn(C4CC4)c23)cc1C(=O)Nc1ccnc(C(F)(F)F)c1` [Compound I-123], the concentration for half-maximal inhibition (IC50) was above 10000 nM.

`Cn1nc(-c2cccc3[nH]ccc23)c(C(F)(F)F)c1C(=O)Nc1ccnc(C(F)(F)F)c1` [Compound I-97] came in with an IC50 of 500 to 2500 nM.

`CN(C)CCn1nc(-c2cccc3ccoc23)c(C(F)(F)F)c1C(=O)Nc1cnc(-n2nccn2)c(C#N)c1` [Compound I-186, 3-(benzofuran-7-yl)-N-(5-cyano-6-(2H-1,2,3-triazol-2-yl)pyridin-3-yl)-1-(2-(dimethylamino)ethyl)-4-(trifluoromethyl)-1H-pyrazole-5-carboxamide] came in with an IC50 below 500 nM.

In turn, `Cn1nc(C(=O)Nc2ccc(C(=O)N3CC(O)C3)c(Cl)c2)c(C(F)(F)F)c1-c1ccccc1` [Compound I-149] gave a concentration for half-maximal inhibition (IC50) above 10000 nM.

`N#Cc1cc(NC(=O)c2c(C(F)(F)F)c(-c3ccccc3)nn2C2COC2)cnc1-n1nccn1` [Compound I-177]: the half-maximal inhibitory concentration (IC50) was 2500 to 10000 nM.

As to `O=C(Nc1ccnc(C(F)(F)F)c1)c1nn(C2CC2)c(-c2ccccc2)c1C(F)(F)F` [Compound I-192], the 50% inhibitory concentration (IC50) lay in the range of 500 to 2500 nM.

For the compound `Cc1nc2cccc(-c3nn(C)c(C(=O)Nc4ccnc(C5CC5)c4)c3C(F)(F)F)c2s1` [Compound I-298], the half-maximal inhibitory concentration (IC50) was above 10000 nM.

The compound `Cn1nc(-c2cccc3ccoc23)c(C(F)(F)F)c1C(=O)Nc1ccnc(C(F)(F)F)c1` [Compound I-29] returned a concentration for half-maximal inhibition (IC50) below 500 nM.

As for `O=C1c2c(C(F)(F)F)c(-c3ccccc3)nn2CCN1c1ccnc(C(F)(F)F)c1` [Compound I-184], the half-inhibitory concentration (IC50) is above 10000 nM.

`Cn1nc(-c2cnc3ccccn23)c(C(F)(F)F)c1C(=O)Nc1ccnc(C(F)(F)F)c1` [Compound I-195, 3-(imidazo[1,2-a]pyridin-3-yl)-1-methyl-4-(trifluoromethyl)-N-(2-(trifluoromethyl)pyridin-4-yl)-1H-pyrazole-5-carboxamide] had an IC50 above 10000 nM.

`Cn1nc(C(=O)c2ccccc2)c(C(F)(F)F)c1C(=O)Nc1ccnc(C(F)(F)F)c1` [Compound I-193, 3-benzoyl-1-methyl-4-(trifluoromethyl)-N-(2-(trifluoromethyl)pyridin-4-yl)-1H-pyrazole-5-carboxamide] came in with a half-inhibitory concentration (IC50) of 500 to 2500 nM.

For `Cn1nc(-c2ccccc2)c(C(F)(F)F)c1C(=O)Nc1cnc(-n2nccn2)c(Cl)c1` [Compound I-152], the IC50 was below 500 nM.

As for `Cc1ccc2ncsc2c1-c1nn(C)c(C(=O)Nc2ccnc(C(F)(F)F)c2)c1C(F)(F)F` [Compound I-223], the IC50 fell in the range of 500 to 2500 nM.

In turn, `Cn1nc(-c2csc3ncccc23)c(C(F)(F)F)c1C(=O)Nc1ccnc(C(F)(F)F)c1` [Compound I-90] came in with a concentration for half-maximal inhibition (IC50) of 500 to 2500 nM.

The compound `Cn1nc(C(=O)Nc2cnc(-n3nccn3)c(Cl)c2)c(C(F)(F)F)c1-c1ccccc1` [Compound I-148] returned an IC50 below 500 nM.

In turn, `Cn1nc(-c2c(Cl)ccc3c2OCO3)c(C(F)(F)F)c1C(=O)Nc1ccnc(C(F)(F)F)c1` [Compound I-49] gave a 50% inhibitory concentration (IC50) below 500 nM.

Take `Cn1nc(-c2cccc3c2OCCN3)c(C(F)(F)F)c1C(=O)Nc1ccnc(C(F)(F)F)c1` [Compound I-51]: the IC50 is above 10000 nM.

`Cn1nc(N2CCCc3ccccc32)c(C(F)(F)F)c1C(=O)Nc1ccnc(C(F)(F)F)c1` [Compound I-85, 3-(3,4-dihydroquinolin-1 (2H)-yl)-1-methyl-4-(trifluoromethyl)-N-(2-(trifluoromethyl)pyridin-4-yl)-1H-pyrazole-5-carboxamide]: the IC50 lay in the range of 500 to 2500 nM.

Regarding `Cn1nc(-c2cnc(CO)c3ccccc23)c(C(F)(F)F)c1C(=O)Nc1ccnc(C(F)(F)F)c1` [Compound I-194, 3-(1-(hydroxymethyl)isoquinolin-4-yl)-1-methyl-4-(trifluoromethyl)-N-(2-(trifluoromethyl)pyridin-4-yl)-1H-pyrazole-5-carboxamide], the IC50 lay within 2500 to 10000 nM.

Compound `Cn1nc(-c2cnn3c2OCCC3)c(C(F)(F)F)c1C(=O)Nc1ccnc(C(F)(F)F)c1` [Compound I-26] registered an IC50 above 10000 nM.

Turning to `Cn1nc(-c2ccccc2OC2COC2)c(C(F)(F)F)c1C(=O)Nc1ccnc(C(F)(F)F)c1` [Compound I-28], the IC50 was 2500 to 10000 nM.

The compound `Cc1ccc2ncccc2c1-c1nn(C)c(C(=O)Nc2ccnc(C(F)(F)F)c2)c1C(F)(F)F` [Compound I-55] displayed an IC50 of 500 to 2500 nM.

`Cn1nc(-c2nccc3ncsc23)c(C(F)(F)F)c1C(=O)Nc1ccnc(C(F)(F)F)c1` [Compound I-107] registered an IC50 above 10000 nM.

Compound `Cn1nc(-c2ccccc2)c(C(F)(F)F)c1C(=O)Nc1cnc(-n2nccn2)c(C(F)(F)F)c1` [Compound I-151] showed an IC50 below 500 nM.

Turning to `Cn1nc(-c2ccccc2OC2COC2)c(C(F)(F)F)c1C(=O)Nc1cnc(-n2nccn2)c(C#N)c1` [Compound I-34], the IC50 was in the range of 500 to 2500 nM.

With `Cn1nc(-c2cccc3ncsc23)c(C(F)(F)F)c1C(=O)Nc1ccnc(C2CC2)c1` [Compound I-282], the 50% inhibitory concentration (IC50) is above 10000 nM.

As to `Cn1nc(-c2n[nH]c3ncncc23)c(C(F)(F)F)c1C(=O)Nc1ccnc(C(F)(F)F)c1` [Compound I-231], the IC50 was above 10000 nM.

With `Cn1nc(Oc2ccccc2)c(C(F)(F)F)c1C(=O)Nc1ccnc(C(F)(F)F)c1` [Compound I-206], the IC50 fell in the range of 500 to 2500 nM.

`Cn1nc(-c2cccc3c2NC(=O)C3)c(C(F)(F)F)c1C(=O)Nc1ccnc(C(F)(F)F)c1` [Compound I-23] yielded an IC50 of 500 to 2500 nM.

In the case of `O=C(Nc1ccnc(C(F)(F)F)c1)c1c(C(F)(F)F)c(-c2ccccc2)nn1C1COC1` [Compound I-178], the 50% inhibitory concentration (IC50) is above 10000 nM.

As for `Cn1nc(-c2cccc3c2OC(F)(F)O3)c(C(F)(F)F)c1C(=O)Nc1cnc(-n2nccn2)c(Cl)c1` [Compound I-154], the IC50 was below 500 nM.

Take `Cn1nc(-c2cccc3ncccc23)c(C(F)(F)F)c1C(=O)Nc1cnc(-n2nccn2)c(C(F)F)c1` [Compound I-121]: the IC50 was below 500 nM.

In turn, `CN(C)c1cc(-c2nn(C)c(C(=O)Nc3ccnc(C(F)(F)F)c3)c2C(F)(F)F)ccn1` [Compound I-76] displayed a 50% inhibitory concentration (IC50) above 10000 nM.
